According to patent US10329309B2, “3-(3H-imidazo[4,5-B]pyridin-2-yl)-1H-pyrazolo[4,3-B]pyridines and therapeutic uses thereof” (Samumed, LLC, priority 2015, dated 2019):

What was measured:
Type in all cases: cell-based
[1] = test system: Wnt activity (Sp5-Luc reporter, SW480 colon carcinoma cells); test: Screening assay for Wnt activity: Sp5-Luc reporter gene assay in SW480 cells; conditions: Homo sapiens, overnight incubation, 10-point dose-response from 10 μM
Outline: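 Luminescence (BrightGlo) read after overnight 37 °C exposure of Sp5-Luc SW480 reporter cells, 4,000/well in 1% FBS, to compound dosed 1:3 over 10 points from 10 μM with 0.1% DMSO. Values normalized to DMSO-only cells, fitted with variable-slope four-parameter model; where EC50 exceeds 10 μM, % inhibition at 10 μM reported.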

IL-6 (THP-1 cells) = test: Inhibition of IL-6 in LPS-stimulated THP-1 monocytes (HTRF); conditions: Homo sapiens; for EC50: LPS 500 ng/mL, IL-6 by HTRF; for inhibition at 10 µM: LPS stimulated, IL-6, at 10 μM, read-out: percent inhibition at 10 μM (given for EC50 of >10 μM)
Outline: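 IL-6 release was read as the HTRF 665/620 nm ratio after 22 h of 500 ng/mL LPS at 37 °C. Before stimulation, THP-1 cells kept 24 h in 1% FBS were exposed 2 h to a 10-point 1:3 compound series starting at 10 μM, in 0.1% DMSO. Four-parameter EC50s came from DMSO-normalized duplicates, with % inhibition at 10 μM reported beyond 10 μM.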

SW480 colon cancer cells = test: Cell viability assay (CellTiter-Blue), four days; conditions: Homo sapiens, 96 h; for EC50: CellTiter-Blue cell viability; for inhibition at 10 µM: read-out: percent inhibition at 10 μM (given for EC50 of >10 μM)
Outline: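 Four-day viability readout in SW480 cells: compound at 0.0045–10 μM (1:3 series), DMSO controls in eight replicates, CellTiter-Blue fluorescence after ~3 h. Values are regression-derived EC50s, or percent inhibition at 10 μM when EC50 exceeds 10 μM.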

SMILES | EC50 [1] [nM] | EC50 (IL-6 (THP-1 cells)) [nM] | EC50 (SW480 colon cancer cells) [nM] | inhibition at 10 µM (IL-6 (THP-1 cells)) [%] | inhibition at 10 µM (SW480 colon cancer cells) [%]
Cc1ccncc1-c1ccc2[nH]nc(-c3nc4c(-c5cc(F)cc(CNS(C)(=O)=O)c5)ccnc4[nH]3)c2n1 [Compound 481, N-(3-fluoro-5-(2-(5-(4-methylpyridin-3-yl)-1H-pyrazolo[4,3-b]pyridin-3-yl)-3H-imidazo[4,5-b]pyridin-7-yl)benzyl)methanesulfonamide] | 1250 | 1030 | 5570 |  | 
CS(=O)(=O)NCc1cc(F)cc(-c2ccnc3[nH]c(-c4n[nH]c5ccc(-c6cncc(CNCc7ccccc7)c6)nc45)nc23)c1 [Compound 500, N-(3-(2-(5-(5-((Benzylamino)methyl)pyridin-3-yl)-1H-pyrazolo[4,3-b]pyridin-3-yl)-3H-imidazo[4,5-b]pyridin-7-yl)-5-fluorobenzyl)methanesulfonamide] | 3580 | > 10000 | 8840 | 45.6 | 
Fc1cccc(-c2ccnc3[nH]c(-c4n[nH]c5ccc(C6=CCNCC6)nc45)nc23)c1 [Compound 506, 3-(7-(3-fluorophenyl)-3H-imidazo[4,5-b]pyridin-2-yl)-5-(1,2,3,6-tetrahydropyridin-4-yl)-1H-pyrazolo[4,3-b]pyridine] | > 10000 | > 10000 | 2800 | 27.9 | 
Cc1ncc(-c2ccc3[nH]nc(-c4nc5c(-c6cccc(F)c6)ccnc5[nH]4)c3n2)n1C [Compound 509, 5-(1,2-dimethyl-1H-imidazol-5-yl)-3-(7-(3-fluorophenyl)-3H-imidazo[4,5-b]pyridin-2-yl)-1H-pyrazolo[4,3-b]pyridine] | 120 | > 10000 | 115 | 17.5 | 
NC1CN(c2cncc(-c3ccc4[nH]nc(-c5nc6c(-c7cccc(F)c7)ccnc6[nH]5)c4n3)n2)C1 [Compound 510, 1-(6-(3-(7-(3-fluorophenyl)-3H-imidazo[4,5-b]pyridin-2-yl)-1H-pyrazolo[4,3-b]pyridin-5-yl)pyrazin-2-yl)azetidin-3-amine] | 3710 | 23 | 1600 |  | 
Fc1cccc(-c2ccnc3[nH]c(-c4n[nH]c5ccc(-c6cncc(OCCN7CCCC7)c6)nc45)nc23)c1 [Compound 514, 3-(7-(3-Fluorophenyl)-3H-imidazo[4,5-b]pyridin-2-yl)-5-(5-(2-(pyrrolidin-1-yl)ethoxy)pyridin-3-yl)-1H-pyrazolo[4,3-b]pyridine] | 4110 | > 10000 | 8650 | 49.5 | 
CN(C)CCOc1cncc(-c2ccc3[nH]nc(-c4nc5c(-c6cccc(F)c6)ccnc5[nH]4)c3n2)c1 [Compound 515, 2-((5-(3-(7-(3-fluorophenyl)-3H-imidazo[4,5-b]pyridin-2-yl)-1H-pyrazolo[4,3-b]pyridin-5-yl)pyridin-3-yl)oxy)-N,N-dimethylethan-1-amine] | 2840 | 5540 | 1100 |  | 
COc1cncc(-c2ccc3[nH]nc(-c4nc5c(-c6cccc(F)c6)ccnc5[nH]4)c3n2)c1 [Compound 516, 3-(7-(3-fluorophenyl)-3H-imidazo[4,5-b]pyridin-2-yl)-5-(5-methoxypyridin-3-yl)-1H-pyrazolo[4,3-b]pyridine] | 338 | 8230 | 120 |  | 
Oc1cncc(-c2ccc3[nH]nc(-c4nc5c(-c6cccc(F)c6)ccnc5[nH]4)c3n2)c1 [Compound 517, 5-(3-(7-(3-fluorophenyl)-3H-imidazo[4,5-b]pyridin-2-yl)-1H-pyrazolo[4,3-b]pyridin-5-yl)pyridin-3-ol] | 423 | 1540 | 768 |  | 
Fc1cccc(-c2ccnc3[nH]c(-c4n[nH]c5ccc(-c6cnccn6)nc45)nc23)c1 [Compound 520, 3-(7-(3-fluorophenyl)-3H-imidazo[4,5-b]pyridin-2-yl)-5-(pyrazin-2-yl)-1H-pyrazolo[4,3-b]pyridine] | 3620 | > 10000 | 2040 | 19.5 | 
CN(C)CC(=O)Nc1cncc(-c2ccc3[nH]nc(-c4nc5c(-c6cccc(F)c6)ccnc5[nH]4)c3n2)c1 [Compound 969, 2-(dimethylamino)-N-(5-(3-(7-(3-fluorophenyl)-3H-imidazo[4,5-b]pyridin-2-yl)-1H-pyrazolo[4,3-b]pyridin-5-yl)pyridin-3-yl)acetamide] | 4360 | > 10000 | > 10000 | 26.3 | 27.7
COc1cccc(-c2ccnc3[nH]c(-c4n[nH]c5ccc(-c6cccnc6)nc45)nc23)c1 [Compound 994, 3-(7-(3-methoxyphenyl)-3H-imidazo[4,5-b]pyridin-2-yl)-5-(pyridin-3-yl)-1H-pyrazolo[4,3-b]pyridine] | 1870 | > 10000 | 897 | 50.2 | 
COc1cccc(-c2ccnc3[nH]c(-c4n[nH]c5ccc(-c6cncc(NC(=O)Cc7ccccc7)c6)nc45)nc23)c1 [Compound 1000, N-(5-(3-(7-(3-methoxyphenyl)-3H-imidazo[4,5-b]pyridin-2-yl)-1H-pyrazolo[4,3-b]pyridin-5-yl)pyridin-3-yl)-2-phenylacetamide] | 2800 | > 10000 | 1100 | 12.3 | 
COc1cccc(-c2ccnc3[nH]c(-c4n[nH]c5ccc(-c6cncc(NC(=O)CC(C)(C)C)c6)nc45)nc23)c1 [Compound 1006, N-(5-(3-(7-(3-methoxyphenyl)-3H-imidazo[4,5-b]pyridin-2-yl)-1H-pyrazolo[4,3-b]pyridin-5-yl)pyridin-3-yl)-3,3-dimethylbutanamide] | 1550 | > 10000 | 1180 | 32.7 | 
COc1cccc(-c2ccnc3[nH]c(-c4n[nH]c5ccc(-c6cncc(NC(=O)C7CCCCC7)c6)nc45)nc23)c1 [Compound 1012, N-(5-(3-(7-(3-Methoxyphenyl)-3H-imidazo[4,5-b]pyridin-2-yl)-1H-pyrazolo [4,3-b]pyridin-5-yl)pyridin-3-yl)cyclohexanecarboxamide] | 1910 | > 10000 | 2910 | 43.3 | 
CC(C)CC(=O)Nc1cncc(-c2ccc3[nH]nc(-c4nc5c(-c6ccc(Cl)s6)ccnc5[nH]4)c3n2)c1 [Compound 1037, N-(5-(3-(7-(5-chlorothiophen-2-yl)-3H-imidazo[4,5-b]pyridin-2-yl)-1H-pyrazolo [4,3-b]pyridin-5-yl)pyridin-3-yl)-3-methylbutanamide] | 1490 | 5050 | 110 |  | 
CC(C)(C)C(=O)Nc1cncc(-c2ccc3[nH]nc(-c4nc5c(-c6ccc(Cl)s6)ccnc5[nH]4)c3n2)c1 [Compound 1043, N-(5-(3-(7-(5-chlorothiophen-2-yl)-3H-imidazo[4,5-b]pyridin-2-yl)-1H-pyrazolo [4,3-b]pyridin-5-yl)pyridin-3-yl)pivalamide] | 644 | > 10000 | > 10000 | 7.6 | 14.5
Clc1ccc(-c2ccnc3[nH]c(-c4n[nH]c5ccc(-c6cncc(CN7CCCC7)c6)nc45)nc23)s1 [Compound 1049, 3-(7-(5-chlorothiophen-2-yl)-3H-imidazo[4,5-b]pyridin-2-yl)-5-(5-(pyrrolidin-1-ylmethyl)pyridin-3-yl)-1H-pyrazolo[4,3-b]pyridine] | 7700 | > 10000 | 2750 | 36.2 | 
O=C(Nc1cncc(-c2ccc3[nH]nc(-c4nc5c(-c6ccc(Cl)s6)ccnc5[nH]4)c3n2)c1)C1CCC1 [Compound 1056, N-(5-(3-(7-(5-chlorothiophen-2-yl)-3H-imidazo[4,5-b]pyridin-2-yl)-1H-pyrazolo [4,3-b]pyridin-5-yl)pyridin-3-yl)cyclobutanecarboxamide] | 354 | > 10000 | 109 | 40.6 | 
NC1CN(c2cncc(-c3ccc4[nH]nc(-c5nc6c(-c7ccc(Cl)s7)ccnc6[nH]5)c4n3)n2)C1 [Compound 1068, 1-(6-(3-(7-(5-Chlorothiophen-2-yl)-3H-imidazo[4,5-b]pyridin-2-yl)-1H-pyrazolo[4,3-b]pyridin-5-yl)pyrazin-2-yl)azetidin-3-amine] | 2300 | 1770 | > 10000 |  | 17.8
